Measured values reported in patent US4734418A, “Quinazoline compounds and antihypertensives” (priority 1984, dated 1988).
Read-outs that look alike come from different tables or passages of the source.

Experiments:
[1] = test system: Spontaneously Hypertensive Rats; test: Test 1: antihypertensive effects (systolic tail artery blood pressure) and heart rate in spontaneously hypertensive rats, oral; type: in vivo, rat (male, SHR); settings: SHR, oral 1 mg/Kg; for change in vivo at 1 mg/kg: Rattus norvegicus; for Change (%) in heart rate: maximum value
Procedure: The antihypertensive effects of the certain compounds of this invention were studied in the following manner.
Among male, spontaneously hypertensive rats (SHRs) of 20 weeks of age or older and 350-430 g heavy all of which had developed hypertension, those having systolic blood pressures of 180 mmHg or higher were used in groups, each of which was constituted of 3-4 of the rats. […] Besides, heart rates were also measured simultaneously. The compounds were each dissolved or suspended in a 0.5% methylcellulose solution and then administered orally.
*All administered orally at a dosage of 1 mg/Kg except for the compounds
**Each percent change in heart rate is indicated by the corresponding

Mouse = test: Test 2: acute toxicity, mouse, oral; type: in vivo, male ddy-mice; settings: 1 g/Kg P.O., fourteenth day
Procedure: The acute toxicity of certain compounds of this invention were studied in the following manner.
Namely, male ddy-mice of 5 weeks of age and male Wister rats of 8 weeks of age were fasted for 18 hours and used in groups each of which was constituted of 4-5 of mice or rats. The compounds were each dissolved or suspended in a 0.5% methylcellulose solution and administered orally (P.O.). On the fourteenth day after the administration, their toxicity were judged.
Each numeral set indicates the number of dead animals/the number of teste
animals. Hyphens (--) indicate that no tests were effected.

[2] = 1 hour, read-out: Antihypertensive effects, change (%) in blood pressure, 1 hour later
[3] = 3 hours, read-out: Antihypertensive effects, change (%) in blood pressure, 3 hours later
[4] = 6 hours, read-out: Antihypertensive effects, change (%) in blood pressure, 6 hours later
[5] = 24 hours, read-out: Antihypertensive effects, change (%) in blood pressure, 24 hours later

| Compound | change in vivo at 1 mg/kg [1, 2] [%] | change in vivo at 1 mg/kg [1, 3] [%] | change in vivo at 1 mg/kg [1, 4] [%] | change in vivo at 1 mg/kg [1, 5] [%] | Change (%) in heart rate [1] | Acute Toxicity, number of dead animals/number of tested animals (Mouse) |
| --- | --- | --- | --- | --- | --- | --- |
| CCN1C(=O)Cc2cnc(N3CCN(c4nc(N)c5cc(OC)c(OC)cc5n4)CC3)nc21 [Example 28] | -17.2 | -15.3 | -31.6 | -3.3 | +11.7% | 0/5 |
| CCNC(=O)c1cnc(N2CCN(c3nc(N)c4cc(OC)c(OC)cc4n3)CC2)nc1NCC [Example 66] | -18 | -23.7 | -28.9 | -16 | +3.8% | 0/5 |
| COc1cc2cnc(N3CCN(c4nc(N)c5cc(OC)c(OC)cc5n4)CC3)nc2cc1OC [Example 71] | 0.5 | -13.4 | -19.1 | -9.6 | +15.9% |  |
| COc1cc2nc(N3CCN(c4nc(SC)c5c6c(sc5n4)CCCC6C)CC3)nc(N)c2cc1OC (centres unmarked) [Example 75] | 12.2 | 0.5 | -7.8 | -3.9 | +8.2% |  |
| COc1cc2nc(N3CCN(c4ncc(C(=O)N(C)C)c(C)n4)CC3)nc(N)c2cc1OC [Example 46] | 0 | -11.9 | -17.5 | -5.7 | +7.4% |  |
| COc1cc2nc(N3CCN(c4ncc5c(n4)CN(CCc4ccccc4)C5=O)CC3)nc(N)c2cc1OC [Example 89] | -2.4 | -13.3 | -13.8 | -2.9 | +5.8% |  |
| COCCN1Cc2nc(N3CCN(c4nc(N)c5cc(OC)c(OC)cc5n4)CC3)ncc2C1=O [Example 87] |  | -15.2 | -21.6 | -2.5 | +17.7% |  |
| COc1cc2nc(N3CCN(c4ncc5c(=O)n(-c6ccccc6)ccc5n4)CC3)nc(N)c2cc1OC [Example 9] | -1.5 | -8.1 | -9.6 | -5.1 | +4.3% |  |
| CCNC(=O)c1cnc(N2CCN(c3nc(N)c4cc(OC)c(OC)cc4n3)CC2)nc1C(=O)NCC [Example 85] | -1.5 | -7.3 | -12.2 | -3.9 | +3.5% |  |
| CCNC(=O)c1cnc(N2CCN(c3nc(N)c4cc(OC)c(OC)cc4n3)CC2)nc1CC [Example 38] | -26.6 | -24.1 | -27.6 | -7.9 | +7.9% |  |
| COc1cc2nc(N3CCN(c4ncc(C(N)=O)c(C)n4)CC3)nc(N)c2cc1OC [Example 40] | -1.4 | -15.9 | -18.4 | -8.2 | +5.8% |  |
| CCCN1Cc2nc(N3CCN(c4nc(N)c5cc(OC)c(OC)cc5n4)CC3)ncc2C1=O [Example 26] | -8.8 | -15.2 | -21.6 | -4.9 | +9.8% |  |
| CCn1ccc2nc(N3CCN(c4nc(N)c5cc(OC)c(OC)c(OC)c5n4)CC3)ncc2c1=O.Cl [Example 81, 4-Amino-6,7,8-trimethoxy-2-(4-(5,6-dihydro-6-ethyl-5-oxopyrido[4,3-d]pyrimidin-2-yl)piperazino)quinazoline hydrochloride] | -0.5 | -7.3 | -12.1 | -8.7 | +3.8% |  |
| COc1cc2nc(N3CCN(c4ncc5c(=O)n(C6CC6)ccc5n4)CC3)nc(N)c2cc1OC [Example 11] | -0.5 | -16.6 | -17.1 | -6.8 | +5.7% |  |
| CCNC(=O)Cc1cnc(N2CCN(c3nc(N)c4cc(OC)c(OC)cc4n3)CC2)nc1NCC [Example 63] | 3.1 | -4.7 | -9 | -6.6 | +6.8% |  |
| CCNc1nc(N2CCN(c3nc(N)c4cc(OC)c(OC)cc4n3)CC2)ncc1C(=O)OC(C)C [Example 61] | -2.4 | -22 | -28.2 | -12 | +12.4% |  |
| CCOC(=O)c1cnc(N2CCN(c3nc(N)c4cc(OC)c(OC)cc4n3)CC2)nc1N [Example 54] | -4.3 | -11.4 | -16.7 | -4.8 | +5.2% |  |
| COc1cc2nc(N3CCN(c4ncc5c(n4)CN(CCN(C)C)C5=O)CC3)nc(N)c2cc1OC [Example 86] | 0.5 | 0 | -6.4 | -0.5 | +7.1% |  |
| CCOC(=O)c1cnc(N2CCN(c3nc(N)c4cc(OC)c(OC)cc4n3)CC2)nc1N(C)C [Example 56] | -21.4 | -22.4 | -22.9 | -4.5 | +13.5% |  |
| CCN(CC)C(=O)c1ccc(N2CCN(c3nc(N)c4cc(OC)c(OC)cc4n3)CC2)nc1 [Example 93] | -4.5 | -9 | -10.5 | -5 | +8.0% |  |
| COc1cc2nc(N3CCN(c4ncc5c(=O)n(C(C)C)ccc5n4)CC3)nc(N)c2cc1OC [Example 6] | -1.5 | -13.8 | -16.7 | -9.9 | +5.1% |  |
| COc1cc2nc(N3CCN(c4ncc5c(=O)n(Cc6ccccc6)ccc5n4)CC3)nc(N)c2cc1OC [Example 10] | 1.5 | -14.4 | -11.9 | -5 | +5.2% |  |
| COc1cc2nc(N3CCN(c4ncc5c(=O)n(CCO)ccc5n4)CC3)nc(N)c2cc1OC [Example 7] | 1.5 | -4.4 | -9.3 | -2.9 | +2.8% |  |
| COc1cc2nc(N3CCN(c4ncc5c(n4)CCCC(=O)N5)CC3)nc(N)c2cc1OC [Example 31] | -2.8 | -8.5 | -17.8 | -3.8 |  |  |
| CCNC(=O)c1cnc(N2CCN(c3nc(N)c4cc(OC)c(OC)cc4n3)CC2)nc1C [Example 41] | -11.2 | -19.5 | -25.9 | -3.9 | +9.2% |  |
